Where two headings read alike, the source gives them in different places.
Tests used:
[1] = tested on: Mycobacterium smegmatis strain mc^2155; assay type: cell-based
[2] = tested on: Mycobacterium bovis strain BCG; assay type: cell-based
[3] = tested on: Mycobacterium avium strain A5
[4] = tested on: Mycobacterium intracellulare
[5] = tested on: Mycobacterium abscessus strain AAy-P-1
[6] = tested on: Mycobacterium marinum ATCC 927
[7] = tested on: Mycobacterium chelonae strain EO-P-1
[8] = tested on: mycobacteria, Staphylococcus aureus and methicillin-resistant S. aureus (MRSA); details: among Ir, Ru, Rh L-α-amino acid complexes
E. coli = test: MIC of complexes against E. coli; assay type: cell-based
M. chelonae = test: 96 well plate dilution test, MIC against M. chelonae; assay type: cell-based
M. smegmatis = test: 96 well plate dilution test, MIC against M. smegmatis; assay type: cell-based
M. abscessus = test: 96 well plate dilution test, MIC against M. abscessus; assay type: cell-based
MRSA = test: Activity against MRSA strains (Table VIIIB, compounds used alone); assay type: cell-based, Staphylococcus aureus; details: for activity against MRSA when used alone: ligand compound used alone, not complexed
[9] = tested on: methicillin-resistant Staphylococcus aureus (MRSA); test: 96 well plate dilution test, MIC against MRSA; assay type: cell-based; details: Pd(AA)2 complexes against MRSA
Description: Biological activities of complexes of Formula 1 were tested against various strains of bacteria using the following general procedure. It is noted that complexes of Formula 2 and Formula 3 were tested using the same procedure. Generally, 96 well plate dilution tests were performed using a 96-well plate consisting of 8 rows and 12 columns. Each well is charged with the test organism in the appropriate growth medium. The test complex is also dissolved in the test medium and the first well is charged with sufficient complex solution to provide a concentration of 250 ug/mL. […] Well 12 is used as a control with no test complex. The plates are incubated for 48 hrs in the case of bacteria and 4-5 days in the case of mycobacteria. The wells are read using a spectrophotometer measuring turbidity at 540 nm. A high optical density indicates significant cell growth while a low optical density indicates significant inhibition. All results reported are normalized in terms of inhibition of cell growth and reported as MICs.
Biological activity is expressed in terms of the Minimum Inhibitory Concentration (MIC) in units of micrograms per mL. The MIC is the lowest concentration of the complex at which full inhibition of organism growth is observed.
Octahedral iridium(III) complexes of Formula 2 were tested against various strains of bacteria using the procedure described above for Formula 1. Biological activity is expressed in terms of the MIC in units of micrograms per mL.

S. Aur = test: Activity against S. Aur (Table VIIIB); assay type: cell-based, Staphylococcus aureus
[10] = Ruthenium piano stool complexes

Molecule | Minimal Inhibitory Concentration (MIC) M. smegmatis [1] [mg/L] | Minimal Inhibitory Concentration (MIC) M. avium [3] [mg/L] | Minimal Inhibitory Concentration (MIC) M. intracellulare [4] [mg/L] | Minimal Inhibitory Concentration (MIC) M. abscessus [5] [mg/L] | Minimal Inhibitory Concentration (MIC) M. marinum [6] [mg/L] | Minimal Inhibitory Concentration (MIC) M. chelonae [7] [mg/L] | also measured
Cp*IrCl (L-Phenylglycine) [1 (L-phengly)] | 5 | >250 | 15 | 31 | >250 | 10 | Minimal Inhibitory Concentration (MIC) M. bovis [2]: 10 mg/L; relative anti-mycobacterial / antibiotic activity [8]: highest activity
C1=CCCC=CCC1.C[P](C)(C)[Ir+]([P](C)(C)C)[P](C)(C)C.[Cl-] [Ir(COD)(PMe3)3] |  |  |  |  |  |  | MIC ug/mL E. coli (E. coli): 60 µg/mL
[Ir(COD)(ethylenediamine)]Cl [3 (en)] | 125 | >250 | 61 | 61 | >251 | 61 | MIC (gram positive MRSA; gram positive MRSA): 8.1 mg/L
Cp*IrCl (L-Serine) [1 (L-ser)] | >250 | >250 |  |  |  |  | M. chelonae MIC (M. chelonae): Inactive
Cp*IrCl (L-Proline) [1 (L-pro)] | 10 | 125 | 61 | 15 | >250 | 15 | M. smegmatis MIC (M. smegmatis; Iridium piano stool complexes): 3.9 mg/L; M. chelonae MIC (M. chelonae): 7.5 mg/L; M. abscessus MIC (M. abscessus; Iridium piano stool complexes): 3.9 mg/L; Minimal Inhibitory Concentration (MIC) M. bovis [2]: 15 mg/L; relative anti-mycobacterial / antibiotic activity [8]: highest activity
Cp*IrCl (D-Proline) [1 (D-pro)] | >250 | >250 | >250 | >250 | >250 | >250 | Minimal Inhibitory Concentration (MIC) M. bovis [2]: >250 mg/L
NCCN [ethylenediamine, reference compound] |  |  |  |  |  |  | activity against MRSA when used alone (MRSA): not active
Cp*IrCl (N-methyl-Glycine) [1 (L-N-methylgly)] | >250 | >250 |  |  |  |  | 
CC(N)C(=O)[O][Ru][Cl].Cc1ccc(C(C)C)cc1 [Ru(p-cymene)ala] |  |  |  |  |  |  | M. smegmatis MIC (M. smegmatis; [10]): 7.5 mg/L; M. chelonae MIC (M. chelonae; [10]): 7.5 mg/L; M. abscessus MIC (M. abscessus; [10]): 7.5 mg/L
CC(N)C(=O)[O-].CC(N)C(=O)[O-].[Pd+2] (stereo not drawn) [Pd(Ala)2] |  |  |  |  |  |  | MIC [9]: inactive
CC[C@@H](CO)NCCN[C@@H](CC)CO [ethambutol, reference compound] |  |  |  |  |  |  | activity against MRSA when used alone (MRSA): not active
Cc1c(C)c(C)[c-](C)c1C.NC(Cc1ccc(O)cc1)C(=O)[O-].[Cl-].[Ir+3] [Ir(Cp*)L-Tyr] |  |  |  |  |  |  | M. chelonae MIC (M. chelonae; Iridium piano stool complexes): Inactive
Cp*IrCl (L-Valine) [1 (L-val)] | 17 | >250 | >250 | 61 | >250 | 31 | M. smegmatis MIC (M. smegmatis; Iridium piano stool complexes): 3.9 mg/L; M. chelonae MIC (M. chelonae): 7.5 mg/L; M. abscessus MIC (M. abscessus; Iridium piano stool complexes): 7.5 mg/L; Minimal Inhibitory Concentration (MIC) M. bovis [2]: 31 mg/L
[Ir(COD)(N,N-dimethylethylenediamine)]Cl [3 (N,N-methyl en)] | >250 | >250 | >250 | >250 | >250 | >250 | Minimal Inhibitory Concentration (MIC) M. bovis [2]: >250 mg/L; MIC (gram positive MRSA): >250 mg/L
[Ir(COD)(ethambutol)]Cl [3 (EMB)] | 61 | >250 | >250 | 61 | >250 | 61 | MIC (gram positive MRSA; gram positive MRSA): 8.1 mg/L
CN(C)CCN [4 (N,N-dimethyl ethylenediamine)] |  |  |  |  |  |  | Activity (MIC) S. Aur (S. Aur): >250 mg/L; Activity (MIC) MRSA PI-1 (MRSA; strain PI-1): >250 mg/L; Activity (MIC) MRSA PI-34380 (MRSA; strain PI-34380): >250 mg/L; Activity (MIC) MRSA PI-34864 (MRSA; strain PI-34864): >250 mg/L; Activity (MIC) MRSA PI-36361 (MRSA; strain PI-36361): >250 mg/L; Activity (MIC) MRSA PI-43300 (MRSA; strain PI-43300): >250 mg/L; Activity (MIC) MRSA PI-52300 (MRSA; strain PI-52300): >250 mg/L; Activity (MIC) MRSA PI-53016 (MRSA; strain PI-53016): >250 mg/L
CC(C)C(N)C(=O)[O-].Cc1ccc(C(C)C)cc1.[Cl-].[Ru+2] [Ru(p-cymene)Val] |  |  |  |  |  |  | M. smegmatis MIC (M. smegmatis; [10]): 7.5 mg/L; M. chelonae MIC (M. chelonae; [10]): 7.5 mg/L; M. abscessus MIC (M. abscessus; [10]): 7.5 mg/L
Cp*IrCl (L-Leucine) [1 (L-leu)] | 32 | >250 | 32 | 32 | >250 | 32 | M. smegmatis MIC (M. smegmatis; Iridium piano stool complexes): 3.9 mg/L; M. chelonae MIC (M. chelonae): 3.9 mg/L
CC(C)CC(N)C(=O)[O-].Cc1ccc(C(C)C)cc1.[Cl-].[Ru+2] [Ru(p-cymene)leu] |  |  |  |  |  |  | M. smegmatis MIC (M. smegmatis; [10]): 3.9 mg/L; M. chelonae MIC (M. chelonae; [10]): 7.5 mg/L; M. abscessus MIC (M. abscessus; [10]): 7.5 mg/L
NC(CO)C(=O)[O-].NC(CO)C(=O)[O-].[Pd+2] (stereo not drawn) [Pd(Ser)2] |  |  |  |  |  |  | MIC [9]: inactive
Cp*IrCl (L-Phenylalanine) [1 (L-phe)] |  |  |  |  |  |  | relative anti-mycobacterial / antibiotic activity [8]: highest activity
CNCCN [N-methylethylenediamine, reference compound] |  |  |  |  |  |  | activity against MRSA when used alone (MRSA): not active
Cp*IrCl (Glycine) [1 (L-gly)] | 61 | >250 | >250 | 125 | >250 | 125 | 
Cp*IrCl (L-Alanine) [1 (L-ala)] | 15 | >250 | 61 | 31 | >250 | 61 | M. smegmatis MIC (M. smegmatis; Iridium piano stool complexes): 7.5 mg/L; M. chelonae MIC (M. chelonae): 7.5 mg/L; M. abscessus MIC (M. abscessus; Iridium piano stool complexes): 7.5 mg/L; Minimal Inhibitory Concentration (MIC) M. bovis [2]: 31 mg/L
[Ir(COD)(N-methylethylenediamine)]Cl [3 (N-methyl en)] | >250 | >250 | >250 | >250 | >250 | >250 | Minimal Inhibitory Concentration (MIC) M. bovis [2]: >250 mg/L; MIC (gram positive MRSA): 16.2 mg/L
palladium(II) bis-valine [Pd(Val)2] |  |  |  |  |  |  | MIC [9]: 9.0 mg/L
Cp*IrCl (L-Trans-4-Hydroxyproline) [1 (L-hyp)] | >250 | >250 |  |  |  |  | 
O=C([O][Pd][O]C(=O)C1CCCN1)C1CCCN1 (stereo not drawn) [Pd(Pro)2, bis-prolinato palladium(II)] |  |  |  |  |  |  | MIC [9]: 7.5 mg/L
CN(C)CCN [N,N-dimethylethylenediamine, reference compound] |  |  |  |  |  |  | activity against MRSA when used alone (MRSA): not active
Napthalenediamine [reference compound] |  |  |  |  |  |  | activity against MRSA when used alone (MRSA): active

— patent publication US8841281B2, “Transition metal complexes of amino acids and related ligands and their use as catalysts, anti-microbials, and anti-cancer agents” (Virginia Tech Intellectual Properties, Inc., priority 2011, dated 2014)
